Series [1] is described as follows: Far-UV CD, helicity from molar ellipticity at 222 nm. Type of series: physicochemical. The note with it: 5 °C; for [Θ]^222 (value in parentheses): 50 mM Tris pH 7.0; for Helicity (%): 50 mM Tris pH 7.0, from [Θ]^222 assuming −39,500 deg cm^2 dmol^−1 for a fully formed α-helix. The method, then: Spectra were collected on a Jasco J810 spectropolarimeter (Jasco, Tokyo, Japan) interfaced with a Peltier unit. Far-UV measurements were performed with samples placed in quartz cells with a 0.1 cm path length (Hellma, Kruibeke, Belgium), with a response time of 2 s, a band width of 1 nm, and a scan velocity of 50 nm/min. For all peptides, a wide range of concentrations (10–50 µM) was used to determine whether either the shape or the intensity of the spectra was concentration-dependent. None of those features changed in the concentration range explored. The experiments in aqueous solution were acquired at 5 °C in Tris buffer (50 mM, pH 7.0). Raw ellipticity was converted to molar ellipticity, [Θ], from which the fraction of helical populations was determined as previously described. For the experiments in the presence of each protein (repeated three times), the same concentration used in the fluorescence experiments was used, and the experimental set-up was the same as described above for the isolated peptides.

For series [2], the system named is Staphylococcus aureus CECT59. In kind it is cell-based. The protocol:
The CECT59 strain of the Gram-positive bacteria Staphylococcus aureus from the Spanish Type Culture Collection (Colección Española de Cultivos Tipo, CECT, Universitat de Valencia, Spain) was used for determining its sensitivity to the HPr peptides studied in this work. The MIC for each peptide was determined by the two-fold broth microdilution method according to the Clinical and Laboratory Standards Institute (CLSI) guidelines, with some modifications as previously described. For this testing procedure, a bacteria colony previously grown in MH agar plates was isolated and incubated in MH broth at 37 °C overnight to prepare the bacteria inoculum to be used in each assay. Then, the bacteria suspensions were adjusted to a 100× dilution of an 0.5 McFarland turbidity standard in MH broth and incubated with different concentrations of each peptide in round-bottom 96-well polystyrene plates (Deltalab S.L., Rubí, Spain) (50 μL/well) for 24 h at 37 °C. The peptide concentrations employed comprised two-fold dilutions starting at either 120, 160, or 400 µM, depending on the experiment. […] All assays were performed in triplicate.

The nature of series [3]: Translational diffusion NMR (DOSY). Type of series: physicochemical. The note with it: for D (translational diffusion coefficient): DOSY, 10 °C, 100% D2O, 70-120 µM peptide, fitting errors, repeated twice; for Rh (in parentheses, from DOSY): from comparison with the Rh of dioxane (2.12 Å). The method, then:
(b) Translational diffusion NMR (DOSY): Peptide concentrations were the same as those used in the 1D-^1H-NMR spectra. Translational self-diffusion measurements were performed with the pulsed-gradient spin-echo sequence in the presence of 100% D2O. The following relationship existed between the translational self-diffusion coefficient, D, and the delays used during experiment acquisition:(2) I/I0=−exp(DγH2δ^2G^2(Δ−δ/3−τ/2)) where I is the peak intensity of a particular resonance (or a group of them) at any gradient strength; I0 is the maximum peak intensity of the same resonance(s) at the smallest gradient strength (that is, at 2% of the total power of the gradient coil); D is the translational self-diffusion constant (in cm^2 s^−1); δ is the duration (in s) of the gradient; G is the gradient strength (in T cm^−1); ∆ is the time (in s) between the gradients; γH is the gyromagnetic constant of the proton (in rad s^−1 T^−1); and τ is the recovery delay between the bipolar gradients (100 µs in our experiments). The gradient strength (G) was varied in 16 lineal steps, between 2 and 95% of the total power of the gradient coil of the probe. The gradient strength was calibrated by using the value of D for the residual proton water line in a sample containing 100% D2O placed in a 5 mm tube [42]. Data were plotted as I/I0 versus G^2, and the exponential factor of the curve was:(3) DγH2δ^2(Δ−δ/3−τ/2) from which D can be obtained. The duration of the gradient (δ) was 2.25 ms, and the time between the two gradients (∆) was set to 200 ms. The signal from the methyl groups between 1.1 and 0.70 ppm were used for integration of the intensity. A final concentration of 1% of dioxane was added to each peptide; the hydrodynamic radius, Rh, of each peptide was obtained for comparison by assuming that the Rh of dioxane was 2.12 Å [42]. The DOSY experiment was repeated twice with fresh samples for each peptide.

Series [4] addresses T1, Rsd^ec (Escherichia coli, UniProt P0AFX4).
T1 construct: His-tag; made in house; host or cells: E. coli C41
The experiment in a line: Isothermal titration calorimetry (ITC), peptide/Rsd^ec binding. The note with it: ITC, 25 °C; for ΔH, Rsd^ec: 50 mM Tris pH 7.0. The method, then: The experimental set-up and data processing of ITC experiments has been described previously. Rsd^ec or EIN^sc (at 10–20 µM) were injected into the cell, and the peptides in the syringe (100–200 µM) in 50 mM of Tris buffer, pH 7.0. The temperature for all the experiments was 25 °C. Typically, each calorimetric titration consisted of performing 19 injections with 2 μL volume, with a time spacing of 150 s, while stirring at 750 rpm in an Auto-iTC200 high-sensitivity microcalorimeter (MicroCal, Malvern-Panalytical, Malvern, UK). The results were analysed by applying a model that considered a single binding site (assuming a 1:1 stoichiometry) for the peptide/EIN^sc or peptide/Rsd^ec interaction using a nonlinear least-squares regression analysis in Origin 7.0 (OriginLab, Northampton, MA, USA) with user-defined fitting routines.
On the technique in general: In ITC the heat of successive injections is recorded.

Series [5] can be described thus: TFE titration followed by far-UV CD (disordered-helical two-state equilibrium). The note with it: for [TFE]1/2 / m: TFE titration by far-UV CD, 20 µM peptide, two-state fit, fitting errors; for percentage of helical population (in parentheses): from ∆G^water assuming a two-state conformational equilibrium; for ∆G^water: product of m- and [TFE]1/2 values, error propagation. In kind it is physicochemical. The method, then: For experiments in the presence of TFE, the same set of experimental parameters was used. Cosolvent concentrations were indicated in percentage of volume (%). […] The peptide concentration for these experiments was 20 µM.

Series [6] addresses T2, N-terminal domain of EI from Streptomyces coelicolor (EIN^sc) (Streptomyces coelicolor).
T2 chain: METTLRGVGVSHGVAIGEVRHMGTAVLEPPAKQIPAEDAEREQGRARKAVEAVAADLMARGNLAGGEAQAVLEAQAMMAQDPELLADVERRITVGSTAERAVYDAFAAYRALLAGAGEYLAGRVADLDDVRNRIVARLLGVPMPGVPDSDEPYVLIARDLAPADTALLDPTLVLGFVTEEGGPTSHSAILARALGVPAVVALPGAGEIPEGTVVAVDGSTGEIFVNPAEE
In words: other fluorescence titration; peptide 0–30 µM added to 3 µM Rsd^ec or EIN^sc; 50 mM Tris, pH 7.0, 25 °C; samples left overnight at 5 °C; blank of peptide subtracted. The note with it: both partners purified.

In series [7] the target is T2, N-terminal domain of EI from …. In words: ITC; Rsd^ec or EIN^sc (10–20 µM) in the cell, peptide (100–200 µM) in the syringe; 50 mM Tris, pH 7.0, 25 °C; single binding-site model, 1:1 stoichiometry assumed. The note with it: both partners purified.
Series [8] addresses T3, Regulator of sigma D from Escherichia coli (Rsd^ec) (E. coli, UniProt P0AFX4 1-158).
T3 construct: Rsd (regulator of sigma D), anti-sigma factor of sigma 70, E. coli; 158-residue-long protein; called 'intact Rsd' in the abstract and 'wild-type Rsd vector' in the methods; Vector was a gift from Ann Hochschild; source: E. coli C41, purified as described [24,50]
T3 sequence (looked up): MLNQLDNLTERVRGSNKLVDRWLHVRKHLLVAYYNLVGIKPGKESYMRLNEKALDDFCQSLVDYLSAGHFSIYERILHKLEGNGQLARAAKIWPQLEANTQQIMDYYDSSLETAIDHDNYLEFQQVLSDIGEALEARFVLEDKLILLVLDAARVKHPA
The description is as above. The note with it: both partners purified.

Where [9] appears, read: S. aureus CECT59, two-fold broth microdilution (CLSI), MH broth, 24 h, 37 °C, triplicate (sd = 0), highest concentration tested 400 µM.

Like-named read-outs stand apart in the source and are kept apart here.

Regarding “Ac-GWAEGLHARAASIFVRAATATG-NH2 [Peptide P18A]”, in series [1], the “[Θ]^222 (value in parentheses)” value is recorded as −1135.47 deg cm^2 dmol^−1 and the “Helicity (%)” value worked out at 2.9%. In series [2] (setting [9]), this molecule returned an MIC of 120 µM. In series [3], the “D (translational diffusion coefficient)” value was 2.0 ± 0.1 cm^2 s^−1 × 10^6 and the “Rh (in parentheses, from DOSY)” value is 11 ± 1 Å. Also, in series [4], the “ΔH, Rsd^ec” value came out at 1.1 ± 0.4 kcal/mol. Also, in series [5], the “[TFE]1/2” value is listed as 19.8 ± 0.4 % (v/v), the m is 181 ± 17 cal/mol (% (v/v)), the “percentage of helical population (in parentheses)” value (shortened to “percentage of helical population”) came out at 0.15% and the “∆G^water” value was found to be 3.6 ± 0.3 kcal/mol.

Turning to “Ac-GWAEGLHARAASAFARAATATG-NH2 [P18A/I21A/V23A]”, in series [1], the “[Θ]^222 (value in parentheses)” value is −2698.61 deg cm^2 dmol^−1 and the “Helicity (%)” value stood at 6.8%. This molecule gave an MIC in series [2] (CECT59, 24 h) of 60 µM. Besides, in series [3], the “D (translational diffusion coefficient)” value was determined as 2.5 ± 0.4 cm^2 s^−1 × 10^6 and the “Rh (in parentheses, from DOSY)” value is 9 ± 2 Å. The “ΔH, Rsd^ec” value in series [4] turned out to be 0.6 ± 0.4 kcal/mol. Besides, in series [4] (50 mM Tris pH 7.0, single binding-site model, read-out: Kd, Rsd^ec (ITC)), the Kd was determined as 2.6 ± 0.4 µM. In series [5], the “[TFE]1/2” value is listed as 19.0 ± 0.9 % (v/v), the m is 184 ± 32 cal/mol (% (v/v)), the “percentage of helical population” value amounted to 0.17% and the “∆G^water” value is listed as 3.5 ± 0.6 kcal/mol.

For the molecule “Ac-GWAEGLHARPASIAVRAATATG-NH2 [Peptide F22A]”, in series [1], the “[Θ]^222 (value in parentheses)” value is listed as −84.95 deg cm^2 dmol^−1 and the “Helicity (%)” value was 0.2%. The molecule also returned an MIC in series [2] (setting [9]) of 400 µM. In series [3], the “D (translational diffusion coefficient)” value was 1.83 ± 0.03 cm^2 s^−1 × 10^6 and the “Rh (in parentheses, from DOSY)” value was 11 ± 1 Å. Further, the “ΔH, Rsd^ec” value in series [4] came to 1.1 ± 0.5 kcal/mol. Besides, in series [5], the “[TFE]1/2” value was 22 ± 1 % (v/v), the m is listed as 134 ± 27 cal/mol (% (v/v)), the “percentage of helical population” value stood at 0.5% and the “∆G^water” value came out at 2.9 ± 0.6 kcal/mol.

B1: HPr^9–30 wild-type peptide (residues 9-30 of HPr from Streptomyces coelicolor) (peptide)
peptide: Ac-GWAEGLHARPASIFVRAATATG-NH2
notes: HPr (histidine phosphocarrier) of Streptomyces coelicolor, HPr^sc, residues 9-30; first letter printed as G^9; The limit residues are printed as Gly9-Ala30 (abstract) and Ala9-Gly30 (introduction); source: synthetic peptide, bought: NZYTech (purity >95%)
Consider B1, for which the Kd in series [6] came to 10 µM; in series [7] it was 2.3 ± 0.4 µM; in series [8] it was 1.4 ± 0.3 µM. In addition, the dH in series [7] was -0.8 ± 0.4 kcal/mol; in series [8] it was 1.3 ± 0.4 kcal/mol.

B2: HPr^9–30 P18A/I21A/F22A/V23A peptide (peptide)
peptide: Ac-GWAEGLHARAASAAARAATATG-NH2
notes: HPr of Streptomyces coelicolor, residues 9-30, with P18A, I21A, F22A and V23A; also called quadruple-mutant; source: synthetic peptide, bought: NZYTech (purity >95%)
B2: the Kd in series [6] came out at 11 µM; in series [7], 1.1 ± 0.2 µM. For the same molecule, the dH in series [7] stood at 0.2 ± 0.4 kcal/mol; in series [8], 4.3 ± 0.5 kcal/mol.

B3: HPr^9–30 V23A peptide (peptide)
peptide: Ac-GWAEGLHARPASIFARAATATG-NH2
notes: HPr of Streptomyces coelicolor, residues 9-30, with V23A; source: synthetic peptide, bought: NZYTech (purity >95%)
With B3, the Kd worked out at 9 µM in series [6], 9.1 ± 0.9 µM in series [7] and 8.3 ± 0.9 µM in series [8]. Also, the dH in series [7] was -6.6 ± 0.5 kcal/mol; in series [8], -0.8 ± 0.5 kcal/mol.

B4: HPr^9–30 I21A peptide (peptide)
peptide: Ac-GWAEGLHARPASAFVRAATATG-NH2
notes: HPr of Streptomyces coelicolor, residues 9-30, with I21A; source: synthetic peptide, bought: NZYTech (purity >95%)
In turn, B4 displayed a dH in series [8] of 1 ± 0.4 kcal/mol.

B5: HPr^9–30 P18A peptide (peptide)
peptide: Ac-GWAEGLHARAASIFVRAATATG-NH2
notes: HPr of Streptomyces coelicolor, residues 9-30, with P18A; source: synthetic peptide, bought: NZYTech (purity >95%)
In series [8], B5 returned a Kd of 2.2 ± 0.4 µM and a dH of 1.1 ± 0.4 kcal/mol.

B6: HPr^9–30 P18A/I21A/V23A peptide (peptide)
peptide: Ac-GWAEGLHARAASAFARAATATG-NH2
notes: HPr of Streptomyces coelicolor, residues 9-30, with P18A, I21A and V23A; also called triple-mutant; source: synthetic peptide, bought: NZYTech (purity >95%)
In series [8], B6 displayed a Kd of 2.6 ± 0.4 µM and a dH of 0.6 ± 0.4 kcal/mol.

The term MIC denotes the lowest concentration that inhibits growth of the organism. The term Kd denotes the concentration at which binding is half-saturated.

For the origin of these results see paper PMC8509676, “Residual Helicity at the Active Site of the Histidine Phosphocarrier, HPr, Modulates Binding Affinity to Its Natural Partners” (International Journal of Molecular Sciences, 2021).
